Reference: patent publication EP4635958A1, “PYRIMIDINE-CONTAINING POLYCYCLIC DERIVATIVE INHIBITOR, AND PREPARATION METHOD THEREFOR AND USE THEREOF” (Shanghai Hansoh Biomedical Co., Ltd., priority 2022, dated 2024)
Where a name gives a salt, the structure may show the parent alone. Read-outs that look alike come from different tables or passages of the source.

Key:
GP2D = assay: Inhibition of proliferation of KRAS G12D mutant tumor cell line GP2D (CellTiter-Glo); settings: Homo sapiens, GP2d, 72 h, read-out: GP2D IC50
Experimental: Experimental method: When SNU-1, HPAF-II, Panc0403, AsPC-1 or GP2D cells were cultured to the appropriate confluence, and the SNU-1, HPAF-II, Panc0403, AsPC-1 or GP2D cells were collected. The cells were adjusted to the appropriate cell density using complete culture medium, the cell suspension was plated onto a 96-well plate at 90 µL per well, and the plate was placed in the incubator at 37°C and 5% CO2 for adherent culture overnight. Solutions of the compound with different concentrations were formulated using DMSO and culture medium. A vehicle control was set up. […] Then, CellTiter-Glo solution was added, and the obtained mixture was shaken and mixed evenly, incubated in the dark for 10 min, and read with a BioTek Synergy H1 microplate reader. […] Experimental data processing method: The luminescence signal value was used to calculate the inhibition rate. Graphpad Prism software was used to fit the concentration and inhibition rate to a nonlinear regression curve, so as to obtain the IC50 value.

p-ERK in AGS cells = assay: Inhibition of p-ERK in AGS cells (LANCE Ultra phospho-ERK1/2 kit); assay type: cell-based; settings: Homo sapiens, read-out: AGS_pERK IC50
Experimental: 1. Experimental objective: The inhibition activity of the example compounds on the phosphorylated ERK level in KRAS G12D mutant cells AGS was determined. 2. Experimental instruments: • 2.1 Instruments: Envison; Pipette (Eppendorf & Rainin) • 2.2 Reagents: AGS cells were purchased from COBIOER BIOSCIENCES CO., LTD, with a catalog number of CBP60476; Phosphorylated ERK1/2 (T202-Y204) LANCE Ultra Cellular Detection Kit was purchased from PerkinElmer, with a catalog number of TRF4000M; RPMI 1640 was purchased from Gibco, with a catalog number of 22400071; FBS was purchased from Gibco, with a catalog number of 10091148; PBS was purchased from Gibco, with a catalog number of 10010023; trypsin was purchased from Gibco, with a catalog number of 25200056; cell culture plates were purchased from Corning Company, with a catalog number of 3610; White opaque OptiPlate™-384 plates were purchased from PerkinElmer, with a catalog number of 6007290. 3. Experimental method: When AGS cells were cultured to appropriate confluence, the AGS cells were collected, and the cell density was adjusted to 4 × 10^5/mL using complete culture medium. The cell suspension was plated onto a 96-well plate at 100 µL per well, and the plate was placed in the incubator at 37°C and 5% CO2 for adherent culture overnight. Solutions of the compound with different concentrations were formulated using DMSO and complete culture medium, and a vehicle control was set up. The solutions of the compound were added to the 96-well plate at 25 µL per well, and the plate was placed in the incubator at 37°C and 5% CO2 for further culture for 2 h. Then, the supernatant of the cell culture plate was discarded, 50 µL of lysis buffer was added to each well, the cells were lysed at room temperature under shaking for 30 min, then placed in a centrifuge and centrifuged at 1000 rpm for 1 min. 15 µL of supernatant was transferred to a 384-well plate, 5 µL of detection mixture was added to each well (Eu-labeled anti-ERK1/2 (T202-Y204) Antibody at a final detection concentration of 0.5 nM and ULight labeled anti-ERK1/2 Antibody at a final detection concentration of 5 nM), centrifuged at 1000 rpm for 1 min, mixed evenly, and reacted at room temperature overnight. The plate was read using Envison and the signal values at the emission wavelengths of 620 nm and 665 nm were detected using a time-resolved fluorescence program. 4. […] Graphpad Prism software was used to fit the concentration and inhibition rate to a nonlinear regression curve, so as to obtain the IC50 value. Table 5: Inhibition activity of the compounds on p-ERK in AGS cells

[1] = Pharmacokinetic determination in rats (IV and PO, plasma, LCMS/MS); assay type: in vivo, SD rats; settings: male SD rats; for AUC(0-inf): read-out: AUCo-∞; for half-life: read-out: T1/2 (converted)
Procedure, shortened: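 Male SD rats (3/group), fasted overnight, dosed PO at 30 mg/kg in 10% Captisol/50 mM citrate pH 5.0 or IV at 1 mg/kg in 5% DMSO/10% Solutol HS15/85% PBS. Jugular plasma (EDTA-2K) sampled predose to 24 h; analysed by LCMS/MS.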

[2] = rat, in vivo, IV, 1 mg/kg, overnight fasting, plasma
[3] = rat, in vivo, PO, 30 mg/kg, overnight fasting, plasma

Compound | IC50 (GP2D) | IC50 (p-ERK in AGS cells; AGS, 2 h) | F ([1]; PO 30 mg/kg vs IV 1 mg/kg) | AUC(0-inf) [1, 2] | C0 ([1]; rat, in vivo, IV, 1 mg/kg, overnight fasting, plasma, read-out: C0) | clearance ([1]; rat, in vivo, IV, 1 mg/kg, overnight fasting, plasma, read-out: CL) | half-life [1, 2] | AUC(0-inf) [1, 3] | Cmax ([1]; rat, in vivo, PO, 30 mg/kg, overnight fasting, plasma, read-out: Cmax) | half-life [1, 3] | Tmax ([1]; rat, in vivo, PO, 30 mg/kg, overnight fasting, plasma, read-out: Tmax) | IC50 (p-ERK in AGS cells; AGS cells, 2 h with compound)
C#Cc1c(F)ccc2cc(O)cc(-c3nc4c5c(nc(OCC6(CN7CCC(=CF)CC7)CC6)nc5c3F)N3C[C@H]5CC[C@H](N5)[C@H]3[C@H](CC)O4)c12 [Example 137, 4-((5S,5aS,6S,9R)-12-((1-((4-(fluoromethylene)piperidin-1-yl)methyl)cyclopropyl)methoxy)-5-ethyl-1-fluoro-5a,6,7,8,9,10-hexahydro-5H-4-oxa-3,10a,11,13,14-pentaaza-6,9-methylnaphtho[1,8-ab]hept-2-yl)-5-ethynyl-6-fluoronaphthalen-2-ol] | 0.41 nM | 5.8 nM | 9.7% | 793 ng·h/mL | 1630 ng/mL | 21 mL/min/kg | 11.3 h | 2110 ng·h/mL | 271 ng/mL | 6.2 h | 4 h | 
[2H]C([2H])([2H])[C@@H]1Oc2nc(-c3cc(O)cc4ccc(F)c(C#C)c34)c(F)c3nc(OCC4(CN5CCC(=NOC)CC5)CC4)nc(c23)N2C[C@H]3CC[C@H](N3)[C@@H]12 [Example 338, 1-((1-((((5S,5aS,6S,9R)-2-(8-ethynyl-7-fluoro-3-hydroxynaphthalen-1-yl)-1-fluoro-5-deuteratedmethyl-5a,6,7,8,9,10-hexahydro-5H-4-oxa-3,10a,11,13, 14-pentaaza-6,9-methylenenaphtho[1,8-ab]heptalen-12-yl)oxo)methyl)cyclopropyl)methyl)piperidin-4-one O-methyloxime formate] | 0.34 nM |  |  |  |  |  |  |  |  |  |  | 2.8 nM
